Measurements published in ChEMBL document CHEMBL1201862, “PubChem BioAssay data set” (2004).
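The compound was tested at five concentrations on cells cultured in 96-well plates, with a 48-hour exposure period. The concentration for 50% growth inhibition is given as GI50.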 Calls of active or inactive are those of the source. Cut-off read from the data, not from the text of the source: active = GI50 up to about 1.1 µM and inactive = higher. Where a SMILES comes first, the peptide text is derived from it. The star is where a group is joined. Boc = CC(C)(C)OC(=O)*

How the values were obtained:
Experiment in all cases: inhibition of tumour cell growth, NCI panel, 48 h
A549 = tested on: A549
SNB-19 = tested on: SNB-19
CAKI-1 = tested on: CAKI-1
SF-268 = tested on: SF-268
HCT-15 = tested on: HCT-15
HT-29 = tested on: HT-29
U-251 = tested on: U-251
COLO 205 = tested on: COLO 205
NCI-H522 = tested on: NCI-H522
SR = tested on: SR
KM12 = tested on: KM12
CCRF-CEM = tested on: CCRF-CEM
MOLT-4 = tested on: MOLT-4
SK-MEL-5 = tested on: SK-MEL-5
MDA-N = tested on: MDA-N
LOX IMVI = tested on: LOX IMVI
BT-549 = tested on: BT-549

SMILES	GI50 (A549)	GI50 (SNB-19)	GI50 (CAKI-1)	GI50 (SF-268)	GI50 (HCT-15) [µM]	GI50 (HT-29)	GI50 (U-251)	GI50 (COLO 205)	GI50 (NCI-H522)	GI50 (SR)	GI50 (KM12)	GI50 (CCRF-CEM)	GI50 (MOLT-4)	GI50 (SK-MEL-5)	GI50 (MDA-N)	GI50 (LOX IMVI)	GI50 (BT-549)
O=c1c(Cl)nsnc1Cl	26.3 µM (inactive)	23.4 µM (inactive)	4.26 µM (inactive)	26.4 µM (inactive)	17.5	24.2 µM (inactive)	15.1 µM (inactive)	1.83 µM (inactive)	2.02 µM (inactive)	1.95 µM (inactive)	> 38.7 µM (inactive)	0.984 µM (active)	1.9 µM (inactive)	16.5 µM (inactive)	18.7 µM (inactive)	9.23 µM (inactive)	
O=C(O)C1Cc2ccccc2OC1=O (stereo not given)	> 100 µM (inactive)	> 100 µM (inactive)	> 100 µM (inactive)	> 100 µM (inactive)	> 100	> 100 µM (inactive)	> 100 µM (inactive)	> 100 µM (inactive)	> 100 µM (inactive)	> 100 µM (inactive)	> 100 µM (inactive)		> 100 µM (inactive)	> 100 µM (inactive)			> 100 µM (inactive)
CC(C)CC(Nc1c(O)ccc2ccccc12)C(=O)O (stereo not given)	> 100 µM (inactive)	37.6 µM (inactive)	21.2 µM (inactive)	24.7 µM (inactive)	36.9	81.8 µM (inactive)	29.8 µM (inactive)	> 100 µM (inactive)	26.3 µM (inactive)	28.1 µM (inactive)	30.6 µM (inactive)	0.959 µM (active)	33 µM (inactive)	18.3 µM (inactive)		31.7 µM (inactive)	19.5 µM (inactive)
O=C1Oc2ccccc2C(=O)/C1=C/N1C(=O)CNC1=S	> 100 µM (inactive)	> 100 µM (inactive)	> 100 µM (inactive)	> 100 µM (inactive)	> 100	> 100 µM (inactive)	> 100 µM (inactive)	> 100 µM (inactive)	> 100 µM (inactive)		> 100 µM (inactive)	80.2 µM (inactive)	> 100 µM (inactive)	> 100 µM (inactive)	> 100 µM (inactive)	> 100 µM (inactive)	> 100 µM (inactive)
Cc1ccc(-c2nc3n(c2/C=N\N=C(N)N)CCS3)cc1	15.9 µM (inactive)	15.1 µM (inactive)	17.9 µM (inactive)	14.9 µM (inactive)	17.5	14 µM (inactive)	14.9 µM (inactive)	14.5 µM (inactive)	2.79 µM (inactive)	59 µM (inactive)	15 µM (inactive)	22.1 µM (inactive)	45.8 µM (inactive)	14.2 µM (inactive)		16.7 µM (inactive)	
Cc1cc2c(c(S(=O)(=O)c3ccc(Cl)cc3[N+](=O)[O-])c1)NCCC2	38.5 µM (inactive)	> 100 µM (inactive)		99.3 µM (inactive)	70.8	66.1 µM (inactive)	> 100 µM (inactive)	> 100 µM (inactive)	18.2 µM (inactive)	12.2 µM (inactive)	35.1 µM (inactive)			25.9 µM (inactive)		5.57 µM (inactive)	> 100 µM (inactive)
O=C1/C(=N\NC(=S)Nc2ccc(Cl)cc2)c2cc([N+](=O)[O-])ccc2N1CN1CCOCC1	8.22 µM (inactive)	7.89 µM (inactive)	3.52 µM (inactive)	4.39 µM (inactive)	3.36		7.18 µM (inactive)	13.2 µM (inactive)	6.79 µM (inactive)	1.99 µM (inactive)	11.7 µM (inactive)	2.85 µM (inactive)	0.655 µM (active)	4 µM (inactive)		10.1 µM (inactive)	
CNC(=O)CNC(=O)C(NC(=O)CNC(=O)C1CCCN1C(=O)C(C)NC(=O)C(NC(C)=O)C(C)C)C(C)C (stereo not given) (Ac-VAPGVG-NHMe; configuration not given here)		> 100 µM (inactive)	> 100 µM (inactive)	> 100 µM (inactive)	> 100	> 100 µM (inactive)	> 100 µM (inactive)	> 100 µM (inactive)	> 100 µM (inactive)	> 100 µM (inactive)		> 100 µM (inactive)	> 100 µM (inactive)		> 100 µM (inactive)	> 100 µM (inactive)	
CNC(=O)CNC(=O)C(NC(=O)CNC(=O)C1CCCN1C(=O)C(C)NC(=O)C(NC(=O)OC(C)(C)C)C(C)C)C(C)C (stereo not given) (Boc-VAPGVG-NHMe; configuration not given here)		> 100 µM (inactive)	> 100 µM (inactive)	> 100 µM (inactive)	> 100	> 100 µM (inactive)	> 100 µM (inactive)	> 100 µM (inactive)	> 100 µM (inactive)	> 100 µM (inactive)		> 100 µM (inactive)	> 100 µM (inactive)		> 100 µM (inactive)	> 100 µM (inactive)	
O=S1(=O)OC(c2ccc(O)cc2)(c2ccc(O)cc2)c2ccccc21 [PHENOLSULFONPHTHALEIN]	> 100 µM (inactive)	> 100 µM (inactive)	> 100 µM (inactive)	> 100 µM (inactive)	> 100	> 100 µM (inactive)	> 100 µM (inactive)	> 100 µM (inactive)	> 100 µM (inactive)		> 100 µM (inactive)	> 100 µM (inactive)	> 100 µM (inactive)	> 100 µM (inactive)		> 100 µM (inactive)	> 100 µM (inactive)
